Tests used:
[1] = test system: Kasumi-1 cells; assay: Cell proliferation activity assay in Kasumi-1; format: cell-based; details: Homo sapiens, inhibiting cell proliferation, 72 hours, Cell-Titer Blue
Procedure: (§1) Human acute myeloblastic leukemia cell line Kasumi-1 cells were cultured in PRIM1640 medium plus 20% fetal bovine serum (FBS, purchased from Biological Industries, BI) and 1% penicillin/streptomycin double antibody (P/S, purchased from Life Technology) at 37° C. with 5% CO2. On the day before the compound test, Kasumi-1 cells were spread in a 96-well plate (purchased from Corning) at a concentration of 5000 cells/195 μL/well. After 24 hours, the compound was serially diluted 4-fold with 100% DMSO starting from 10 mM (9 concentrations in total), and then 2 μL of the compound at each concentration was added to 48 μL of PRIM1640 medium for dilution. 5 μL of the diluted compound at each concentration was added to the wells spread with the cell suspension, and the compound and cells were co-incubated in a cell incubator for 72 hours (3 days). Then the mixture was added with 35 μL of Cell-Titer Blue reagent (purchased from Promega) and incubated for another 4 hours. The fluorescence values (excited at 560 nm, detected at 590 nm) were then read on Flexstation III, and the data were calculated using GraphPad Prism software to give IC50 value of the compound in inhibiting cell proliferation.

[2] = test system: MV4-11 cells; assay: Cell proliferation activity assay in MV4-11; format: cell-based; details: Homo sapiens, inhibiting cell proliferation, 72 hours, Cell-Titer Blue
Procedure: as §1, with “lymphoblastic” for “myeloblastic”, “MV4-11” for “Kasumi-1”, “10%” for “20%”, “8000” for “5000”

[3] = molecular target: BRD4 (BD1) (Homo sapiens (Human), UniProt O60885); assay: In vitro BRD4 (BD1) enzymatic activity assay (HTRF); format: binding; details: GST-BRD4 (BD1, 44-168 aa)
Procedure: In the present application, IC50 values of the compounds in inhibiting BRD4 (BD1) enzyme binding reaction were determined by homogeneous time resolved fluorescence (HTRF). A compounds was serially diluted 5-fold with 100% DMSO starting from 0.2 mM (7 concentrations in total), and then 2 μL of the compound at each concentration was added to 48 μL of a reaction buffer (20 mM HEPES pH 7.5, 150 mM NaCl, 5 mM DTT, 0.005% Tween 20, and 100 μg/mL BSA) for dilution, and mixed well. 2.5 μL of the resulting mixture was added to a 384-well plate (OptiPlate-384, purchased from PerkinElmer), then 5 μL of GST-BRD4 (BD1, 44-168 aa) (final concentration: 1 nM) was added, and the resulting mixture was centrifuged, and fully mixed. 2.5 μL of a short peptide Biotin-AHA-SGRGK(Ac)GGK(Ac)GLGK(Ac)GGAK(Ac) RHRKV (final concentration: 100 nM) was then added to initiate the reaction (total reaction volume: 10 μL). The 384-well plate was placed in an incubator at 23° C. to react for 1 hour, and then 5 μL of Eu3+ cryptate-labled anti-GST antibody (purchased from Cisbio) and 5 μL of Streptavidin-XL-665 (purchased from Cisbio) were added to terminate the reaction. After being incubated in the incubator for another 1 hour, the fluorescence values (excited at 320 nm, emitted light at 665 nm and 620 nm being detected, and the ratio of the two being the enzyme binding signal) were read on Envision (purchased from PerkinElmer). The binding strength of each compound to BRD4 (BD1) protein was determined respectively at 7 concentrations, and the data were calculated using GraphPad Prism software to obtain the IC50 value of the compound.

[4] = molecular target: BRD4 (BD2) (Homo sapiens (Human), UniProt O60885); assay: In vitro BRD4 (BD2) enzymatic activity assay (HTRF); format: binding; details: GST-BRD4 (BD2, 349-460 aa)
Procedure: In the present application, IC50 values of the compounds in inhibiting BRD4 (BD2) enzyme binding reaction were determined by homogeneous time resolved fluorescence (HTRF). A compound was serially diluted 5-fold with 100% DMSO starting from 1 mM (7 concentrations in total), and then 2 μL of the compound at each concentration was added to 18 μL of a reaction buffer (20 mM HEPES pH 7.5, 150 mM NaCl, 5 mM DTT, 0.005% Tween 20, and 100 μg/mL BSA) for dilution. After being mixed well, 2 μL of the compound at each concentration was added to 48 μL of the above reaction buffer for dilution, and mixed well (final concentration of the compound in DMSO: 0.1%). 2.5 μL of the resulting mixture was added to a 384-well plate (OptiPlate-384, purchased from PerkinElmer), then 5 μL of GST-BRD4 (BD2, 349-460 aa) (final concentration: 2 nM) was added, and the resulting mixture was centrifuged, and fully mixed. 2.5 μL of a peptide Biotin-AHA-SGRGK(Ac)GGK(Ac)GLGK(Ac)GGAK(Ac) RHRKV (final concentration: 200 nM) was then added to initiate the reaction (total reaction volume: 10 μL). The 384-well plate was placed in an incubator at 23° C. to react for 1 hour, and then 5 μL of Eu3+ cryptate-labled anti-GST antibody (purchased from Cisbio) and 5 μL of Streptavidin-XL-665 (purchased from Cisbio) were added to terminate the reaction. After being incubated in the incubator for another 1 hour, the fluorescence values (excited at 320 nm, emitted light at 665 nm and 620 nm being detected, and the ratio of the two being the enzyme binding signal) were read on Envision (purchased from PerkinElmer). The binding strength of each compound to BRD4 (BD2) protein was determined respectively at 7 concentrations, and the data were calculated using GraphPad Prism software to obtain the IC50 value of the compound.

| IC50 [2] | IC50 [3] | IC50 [4] | Structure (SMILES) | IC50 [1] |
| --- | --- | --- | --- | --- |
| 124 nM | – | – | CCNC(=O)c1cc2c(-c3cc(N=S(C)(C)=O)ccc3Oc3ccc(S(C)(=O)=O)cc3)cn(C)c(=O)c2[nH]1 [Example 1, 4-{5-{[dimethyl(oxo)-λ^6-sulfanylidene]amino}-2-[4-(methylsulfonyl)phenoxy]phenyl}-N-ethyl-6-methyl-7-oxo-6,7-dihydro-1H-pyrrolo[2,3-c]pyridine-2-carboxamide] | 322 nM |
| 15.1 nM | – | – | Cn1cc(-c2cc(N=S(C)(C)=O)ccc2Oc2ccc(C#N)cc2F)c2cc[nH]c2c1=O [Example 2, 4-{4-{[dimethyl(oxo)-λ^6-sulfanylidene]amino}-2-(6-methyl-7-oxo-6,7-dihydro-1H-pyrrolo[2,3-c]pyridin-4-yl)phenoxy}-3-fluorobenzonitrile] | 6.6 nM |
| 30.9 nM | 7.7 nM | 0.45 nM | Cn1cc(-c2cc(N=S(C)(C)=O)ccc2Oc2ccc(S(C)(=O)=O)cc2)c2cc[nH]c2c1=O [Example 3, 4-{5-{[dimethyl(oxo)-λ^6-sulfanylidene]amino}-2-[4-(methylsulfonyl)phenoxy]phenyl}-6-methyl-1,6-dihydro-7H-pyrrolo[2,3-c]pyridin-7-one] | 155 nM |
| 90.4 nM | 26.4 nM | 0.93 nM | Cc1cccc(Cl)c1Oc1ccc(N=S(C)(C)=O)cc1-c1cn(C)c(=O)c2[nH]ccc12 [Example 6, 4-{2-(2-chloro-6-methylphenoxy)-5-[dimethyl(oxo)-λ^6-sulfanylidene]aminophenyl}-6-methyl-1,6-dihydro-7H-pyrrolo[2,3-c]pyridin-7-one] | 13.6 nM |
| 152 nM | 24.3 nM | 0.34 nM | CCNC(=O)c1cc2c(-c3cc(N=S(C)(C)=O)ccc3Oc3c(C)cccc3Cl)cn(C)c(=O)c2[nH]1 [Example 7, 4-{2-(2-chloro-6-methylphenoxy)-5-{[dimethyl(oxo)-λ^6-sulfanylidene]amino}phenyl}-N-ethyl-6-methyl-7-oxo-6,7-dihydro-1H-pyrrolo[2,3-c]pyridine-2-carboxamide] | 2.3 nM |
| 16.1 nM | 2.4 nM | 1.3 nM | Cn1cc(-c2cc(N=S(C)(C)=O)ccc2Nc2ccc(F)cc2F)c2cc[nH]c2c1=O [Example 8, 4-{2-(2,4-difluorophenyl)amino-5-[dimethyl(oxo)-λ^6-sulfanylidene]aminophenyl}-6-methyl-1,6-dihydro-7H-pyrrolo[2,3-c]pyridin-7-one] | 9.3 nM |
| – | 3 nM | 0.75 nM | Cc1ncccc1Oc1ccc(N=S(C)(C)=O)cc1-c1cn(C)c(=O)c2[nH]ccc12 [Example 9, 4-{5-{[dimethyl(oxo)-λ^6-sulfanylidene]amino}-2-[(2-methyl-pyridin-3-yl)oxy]phenyl}-6-methyl-1,6-dihydro-7H-pyrrolo[2,3-c]pyridin-7-one] | – |
| 240 nM | 96.3 nM | 0.53 nM | CCNC(=O)c1cc2c(-c3cc(N=S(C)(C)=O)ccc3Oc3c(C)cc(F)cc3C)cn(C)c(=O)c2[nH]1 [Example 10, 4-{5-{[dimethyl(oxo)-λ^6-sulfanylidene]amino}-2-(4-fluoro-2,6-dimethylphenoxy)phenyl}-N-ethyl-6-methyl-7-oxo-6,7-dihydro-1H-pyrrolo[2,3-c]pyridine-2-carboxamide] | 66.3 nM |
| 124 nM | 29.4 nM | 1.3 nM | Cc1cc(F)cc(C)c1Oc1ccc(N=S(C)(C)=O)cc1-c1cn(C)c(=O)c2[nH]ccc12 [Example 11, 4-{5-{[dimethyl(oxo)-λ^6-sulfanylidene]amino}-2-(4-fluoro-2,6-dimethylphenoxy)phenyl}-6-methyl-1,6-dihydro-7H-pyrrolo[2,3-c]pyridin-7-one] | 53.2 nM |
| 27.8 nM | 4.1 nM | 1.1 nM | Cn1cc(-c2cc(N=S(C)(C)=O)ccc2OCC2CCOC2)c2cc[nH]c2c1=O (stereo not shown) [Example 12, 4-{5-{[dimethyl(oxo)-λ^6-sulfanylidene]amino}-2-[(tetrahydrofuran-3-yl)methoxy]phenyl}-6-methyl-1,6-dihydro-7H-pyrrolo[2,3-c]pyridin-7-one] | 20.7 nM |
| 139 nM | 27.9 nM | 4 nM | CCOC(=O)c1cc2c(-c3cc(N=S(C)(C)=O)ccc3Oc3c(C)cc(F)cc3C)cn(C)c(=O)c2[nH]1 [Example 14, Ethyl 4-{5-{[dimethyl(oxo)-λ^6-sulfanylidene]amino}-2-(4-fluoro-2,6-dimethylphenoxy)phenyl}-6-methyl-7-oxo-6,7-dihydro-1H-pyrrolo[2,3-c]pyridine-2-carboxylate] | 72 nM |
| 9.1 nM | 4.5 nM | 1.2 nM | Cn1cc(-c2cc(N=S3(=O)CCCC3)ccc2Oc2ccc(F)cc2F)c2cc[nH]c2c1=O [Example 15, 4-{2-(2,4-difluorophenoxy)-5-[(1-oxidotetrahydro-1λ^6-thiophen-1-ylidene)amino]phenyl}-6-methyl-1,6-dihydro-7H-pyrrolo[2,3-c]pyridin-7-one] | 13.7 nM |
| – | 330 nM | 4 nM | Cc1cn(-c2ccc(N=S(C)(C)=O)cc2-c2cn(C)c(=O)c3[nH]ccc23)ccc1=O [Example 17, 4-{5-{[dimethyl(oxo)-λ^6-sulfanylidene]amino}-2-[3-methyl-4-oxopyridin-1(4H)-yl]phenyl}-6-methyl-1,6-dihydro-7H-pyrrolo[2,3-c]pyridin-7-one] | – |
| – | 188 nM | 0.88 nM | Cc1cc(F)cc(C)c1Oc1ccc(N=S(C)(C)=O)cc1-c1cn(C)c(=O)c2[nH]c(C(=O)NCC(F)(F)F)cc12 [Example 22, 4-{5-{[dimethyl(oxo)-λ^6-sulfanylidene]amino}-2-(4-fluoro-2,6-dimethylphenoxy)phenyl}-6-methyl-7-oxo-N-(2,2,2-trifluoroethyl)-6,7-dihydro-1H-pyrrolo[2,3-c]pyridine-2-carboxamide] | – |

Source: patent US12030880B2, “Iminosulfanone compound as bromodomain protein inhibitor and pharmaceutical composition and medical use thereof” (CHIA TAI TIANQING PHARMACEUTICAL GROUP CO., LTD., priority 2018, dated 2024)
